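1) Cells in 96-well plates. 2) Compound, 48 h, 5 concentrations. 3) Linear interpolation between surrounding doses. 4) Unreached endpoint = highest concentration. At the GI50, growth is halved.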 Active and inactive are the calls of the source. Cut-off read from the data, not from the text of the source: active = GI50 up to about 1.1 µM and inactive = higher.
Key:
Assay in all cases: inhibition of tumour cell growth, NCI panel, 48 h
[1] = system: 786-0
[2] = system: A498
[3] = system: A549
[4] = system: ACHN
[5] = system: BT-549
[6] = system: CAKI-1
[7] = system: CCRF-CEM
[8] = system: COLO 205
[9] = system: DU-145
[10] = system: HCC 2998
[11] = system: HCT-116
[12] = system: HCT-15
[13] = system: HL-60
[14] = system: HOP-62
[15] = system: HOP-92
[16] = system: HT-29
[17] = system: Hs-578T
[18] = system: IGROV-1
[19] = system: K562
[20] = system: KM12
[21] = system: LOX IMVI
[22] = system: M14
[23] = system: MCF7
[24] = system: MDA-MB-231
[25] = system: MDA-MB-435
[26] = system: MDA-N
[27] = system: MOLT-4
[28] = system: Malme-3M
[29] = system: NCI-H226
[30] = system: NCI-H23
[31] = system: NCI-H460
[32] = system: NCI-H522
[33] = system: NCI/ADR-RES
[34] = system: OVCAR-3
[35] = system: OVCAR-4
[36] = system: OVCAR-5
[37] = system: PC-3
[38] = system: RPMI-8226
[39] = system: RXF 393
[40] = system: SF-268
[41] = system: SF-295
[42] = system: SF-539
[43] = system: SK-MEL-28
[44] = system: SK-MEL-2
[45] = system: SK-MEL-5
[46] = system: SK-OV-3
[47] = system: SN12C
[48] = system: SNB-19
[49] = system: SNB-75
[50] = system: SR
[51] = system: SW-620
[52] = system: T47D
[53] = system: TK-10
[54] = system: U-251
[55] = system: UACC-257
[56] = system: UACC-62
[57] = system: UO-31
[58] = system: EKVX

CC(=O)c1ccc2c(c1)CC1(C2)Cc2ccc3c(c2C1=O)CCC3 (stereo not drawn)
GI50 [1]: 17.6 µM (inactive) | GI50 [2]: 39.3 µM (inactive) | GI50 [3]: 23.4 µM (inactive) | GI50 [4]: 27.7 µM (inactive) | GI50 [5]: 27.9 µM (inactive) | GI50 [6]: 23.2 µM (inactive) | GI50 [7]: 24.3 µM (inactive) | GI50 [8]: 18.3 µM (inactive) | GI50 [9]: 31.3 µM (inactive) | GI50 [10]: 15 µM (inactive) | GI50 [11]: 28.3 µM (inactive) | GI50 [12]: 25 µM | GI50 [13]: 8.26 µM (inactive) | GI50 [14]: 38.9 µM (inactive) | GI50 [15]: 14.2 µM (inactive) | GI50 [16]: 15.2 µM (inactive) | GI50 [17]: 31.5 µM (inactive) | GI50 [18]: 55.2 µM (inactive) | GI50 [19]: 15 µM (inactive) | GI50 [20]: 28.2 µM (inactive) | GI50 [21]: 24.5 µM (inactive) | GI50 [22]: 20 µM (inactive) | GI50 [23]: 22.5 µM (inactive) | GI50 [24]: 35.6 µM (inactive) | GI50 [25]: 17.9 µM (inactive) | GI50 [26]: 21.8 µM (inactive) | GI50 [27]: 14.9 µM (inactive) | GI50 [28]: 18 µM (inactive) | GI50 [29]: 19 µM (inactive) | GI50 [30]: 31.2 µM (inactive) | GI50 [31]: 29.3 µM (inactive) | GI50 [32]: 19.1 µM (inactive) | GI50 [33]: 20.1 µM (inactive) | GI50 [34]: 31 µM (inactive) | GI50 [35]: 19.2 µM (inactive) | GI50 [36]: 36.8 µM (inactive) | GI50 [37]: 21.6 µM (inactive) | GI50 [38]: 16.1 µM (inactive) | GI50 [39]: 24.7 µM (inactive) | GI50 [40]: 31.2 µM (inactive) | GI50 [41]: 31 µM (inactive) | GI50 [42]: 27.7 µM (inactive) | GI50 [43]: 20.3 µM (inactive) | GI50 [44]: 17.1 µM (inactive) | GI50 [45]: 13.3 µM (inactive) | GI50 [46]: 34.9 µM (inactive) | GI50 [47]: 31.8 µM (inactive) | GI50 [48]: 53.1 µM (inactive) | GI50 [49]: 20 µM (inactive) | GI50 [50]: 65.5 µM (inactive) | GI50 [51]: 41 µM (inactive) | GI50 [52]: 12.5 µM (inactive) | GI50 [53]: 24 µM (inactive) | GI50 [54]: 34.8 µM (inactive) | GI50 [55]: 10.8 µM (inactive) | GI50 [56]: 22.1 µM (inactive) | GI50 [57]: 28.4 µM (inactive)

CC(=O)NC1C(OCc2ccccc2)OC(CO)C(O)C1OC(C)C(=O)NC(C(=O)NC(CCC(=O)NCCCC(=O)Nc1ccc2c(c1)CN1C(=O)c3ccccc3C1=N2)C(N)=O)C(C)C (stereo not drawn)
GI50 [1]: > 100 µM (inactive) | GI50 [2]: > 100 µM (inactive) | GI50 [3]: > 100 µM (inactive) | GI50 [4]: > 100 µM (inactive) | GI50 [5]: > 100 µM (inactive) | GI50 [6]: > 100 µM (inactive) | GI50 [7]: > 100 µM (inactive) | GI50 [8]: > 100 µM (inactive) | GI50 [9]: > 100 µM (inactive) | GI50 [58]: > 100 µM (inactive) | GI50 [10]: > 100 µM (inactive) | GI50 [11]: > 100 µM (inactive) | GI50 [12]: > 100 µM | GI50 [13]: > 100 µM (inactive) | GI50 [14]: > 100 µM (inactive) | GI50 [15]: > 100 µM (inactive) | GI50 [16]: > 100 µM (inactive) | GI50 [17]: > 100 µM (inactive) | GI50 [18]: > 100 µM (inactive) | GI50 [19]: > 100 µM (inactive) | GI50 [20]: > 100 µM (inactive) | GI50 [21]: > 100 µM (inactive) | GI50 [22]: > 100 µM (inactive) | GI50 [23]: > 100 µM (inactive) | GI50 [24]: > 100 µM (inactive) | GI50 [25]: > 100 µM (inactive) | GI50 [26]: > 100 µM (inactive) | GI50 [27]: > 100 µM (inactive) | GI50 [28]: > 100 µM (inactive) | GI50 [30]: > 100 µM (inactive) | GI50 [31]: > 100 µM (inactive) | GI50 [33]: > 100 µM (inactive) | GI50 [34]: > 100 µM (inactive) | GI50 [35]: > 100 µM (inactive) | GI50 [36]: > 100 µM (inactive) | GI50 [37]: > 100 µM (inactive) | GI50 [38]: > 100 µM (inactive) | GI50 [39]: > 100 µM (inactive) | GI50 [40]: > 100 µM (inactive) | GI50 [41]: > 100 µM (inactive) | GI50 [42]: > 100 µM (inactive) | GI50 [43]: > 100 µM (inactive) | GI50 [44]: > 100 µM (inactive) | GI50 [45]: > 100 µM (inactive) | GI50 [46]: > 100 µM (inactive) | GI50 [47]: > 100 µM (inactive) | GI50 [48]: > 100 µM (inactive) | GI50 [49]: > 100 µM (inactive) | GI50 [50]: > 100 µM (inactive) | GI50 [51]: > 100 µM (inactive) | GI50 [52]: > 100 µM (inactive) | GI50 [53]: > 100 µM (inactive) | GI50 [54]: > 100 µM (inactive) | GI50 [55]: > 100 µM (inactive) | GI50 [56]: > 100 µM (inactive) | GI50 [57]: > 100 µM (inactive)

Source: ChEMBL document CHEMBL1201862, “PubChem BioAssay data set” (2004)
